Data published in US20170065564A1, “BIS-CYCLIC GUANIDINE COMPOUND COMPOSITIONS, METHODS OF USE AND TREATMENT THEREOF” (University of South Florida, priority 2014, published 2017).

Assays:
[1] = tested on: ESKAPE pathogens; experiment: MIC micro broth dilution assay, statements and stacked scores over all ESKAPE pathogens; type: cell-based; conditions: letters E,S,K,A,P,E = ESKAPE pathogens, — = none
Description: (§1) For this study we used a representative panel of multi-drug resistant clinical ESKAPE pathogen isolates (Supplemental Table S6).^42 43 3a, 44 45 Gram-positive organisms were grown in tryptic soy broth media (TSB), whilst Gram-negative organisms were grown in lysogeny Broth (LB), as described by us previously. ^43 MIC and MBC determination assays.
(§2) The minimum inhibitory concentration (MIC) for the combinatorial libraries, deconvolved 2157 library, and individual compounds were determined as follows. Broth cultures of ESKAPE strains were grown overnight before being diluted 1 in 1,000 in fresh media. Sterile 96-well plates were loaded with culture and compounds (in DMF) were added at decreasing concentrations to equal a total volume of 200 μl per well. Care was taken to not add more than 2.0% DMF to any well. Plates were then incubated at 37° C., and MICs determined after 24 hours by visual inspection for a lack of turbidity in wells. All assays were performed in triplicate with identical results obtained. For both the scaffold ranking and positional scanning samples, relative broad-spectrum activity was determined via stacked scores: […]

[2] = tested on: Enterobacter cloacae; experiment: MIC micro broth dilution assay; type: cell-based; parameters: key to stacked score activity, 100/MIC, E: stacked score = 100/MIC; conditions: E. cloacae
Description: as §1
as §2, with “Broth” for “The minimum inhibitory concentration (MIC) for the combinatorial libraries, deconvolved 2157 library, and individual compounds were determined as follows. Broth”

[3] = tested on: Enterococcus faecium; experiment: MIC micro broth dilution assay; type: cell-based; parameters: key to stacked score activity, 100/MIC, E: stacked score = 100/MIC; conditions: E. faecium
Description: as §1
as §2, with “Broth” for “The minimum inhibitory concentration (MIC) for the combinatorial libraries, deconvolved 2157 library, and individual compounds were determined as follows. Broth”

[4] = tested on: Acinetobacter baumannii; experiment: MIC micro broth dilution assay; type: cell-based; parameters: key to stacked score activity, 100/MIC, A: stacked score = 100/MIC; conditions: A. baumannii
Description: as §1
as §2, with “Broth” for “The minimum inhibitory concentration (MIC) for the combinatorial libraries, deconvolved 2157 library, and individual compounds were determined as follows. Broth”

[5] = tested on: Klebsiella pneumoniae; experiment: MIC micro broth dilution assay; type: cell-based; parameters: key to stacked score activity, 100/MIC, K: stacked score = 100/MIC; conditions: K. pneumoniae
Description: as §1
as §2, with “Broth” for “The minimum inhibitory concentration (MIC) for the combinatorial libraries, deconvolved 2157 library, and individual compounds were determined as follows. Broth”

[6] = tested on: Staphylococcus aureus; experiment: MIC micro broth dilution assay; type: cell-based; parameters: key to stacked score activity, 100/MIC, S: stacked score = 100/MIC; conditions: S. aureus
Description: as §1
as §2, with “Broth” for “The minimum inhibitory concentration (MIC) for the combinatorial libraries, deconvolved 2157 library, and individual compounds were determined as follows. Broth”

[7] = tested on: MRSA cells; experiment: Time kill assay (lysis by OD600, viability by CFU); type: cell-based, Staphylococcus aureus; conditions: for cells remaining after exposure (optical density relative to starting values): MRSA, 2.0% SDS, 0.001% benzalkonium chloride, 0.001% benzethonium chloride; for cell recovery (viability, CFU/mL vs no drug control): after the 120 minute assay, agent washed out
Description: FIGS. 6A and 6B illustrates that bis-cyclic guanidines are bactericidal but not bacteriolytic. […] Shown is the optical density of cells relative to starting values from three independent experiments. Error bars are shown ±SEM. FIG. 8B is a graph illustrating cell viability of all samples after the 120 min experiment. Compounds were removed by centrifugation and washing of cells, followed by serial dilution and enumeration. Percent recovery was determined by comparison to no drug (ND) controls.
Time kill assays were performed in a 96-well microtiter plate using a BioTek Synergy2 plate reader. To prepare bacterial cultures, stationary phase MRSA cells were inoculated into fresh TSB and grown for 3 hours. After this time, cultures were inoculated into a 96-well microtiter plate at an OD600 of 0.5, followed by the addition of test agent at MIC concentrations. In parallel, 2.0% sodium dodecyl sulfate (SDS), 0.001% benzalkonium chloride, 0.001% benzethonium chloride, and 4 μM lysostaphin were used as positive controls. […] Assays were performed in triplicate over the span of 130 minutes, with OD600 readings taken every 10 minutes.

N=C1NC[C@H](CCCCN2C[C@H](CC3CCCCC3)N(CCc3ccc(-c4ccccc4)cc3)C2=N)N1CCC12CC3CC(CC(C3)C1)C2 [Compound 27]
pathogens against which the compound showed activity at 5 ug/ml ([1]; dose 5 ug/ml): SKP | pathogens against which the compound showed activity at 10 ug/ml ([1]; dose 10 ug/ml): ESKPE | pathogens against which the compound showed activity at 25 ug/ml [1]: ESKAPE | stacked score activity, 100/MIC, E [2]: 10 | stacked score activity, 100/MIC, E [3]: 10 | stacked score activity, 100/MIC, A [4]: 4 | stacked score activity, 100/MIC, K [5]: 20 | stacked score activity, 100/MIC, S [6]: 20

CCCCCCCN1C(=N)NC[C@@H]1CCCCN1C[C@H](C(C)CC)N(CCc2cccc(C)c2)C1=N (some centres unmarked) [Compound 32]
pathogens against which the compound showed activity at 25 ug/ml [1]: ESAP | stacked score activity, 100/MIC, E [2]: 0 | stacked score activity, 100/MIC, E [3]: 10 | stacked score activity, 100/MIC, A [4]: 4 | stacked score activity, 100/MIC, K [5]: 0 | stacked score activity, 100/MIC, S [6]: 33

CCCCCCCN1C(=N)NC[C@@H]1CCCCN1C[C@@H](CCC)N(CCc2cccc(C)c2)C1=N [Compound 35]
pathogens against which the compound showed activity at 25 ug/ml [1]: ESAP | stacked score activity, 100/MIC, E [2]: 0 | stacked score activity, 100/MIC, E [3]: 4 | stacked score activity, 100/MIC, A [4]: 4 | stacked score activity, 100/MIC, K [5]: 0 | stacked score activity, 100/MIC, S [6]: 10

CCC(C)[C@H]1CN(CCCC[C@H]2CNC(=N)N2CC2CCC(C)CC2)C(=N)N1CCc1cccc(C)c1 (some centres unmarked) [Compound 50]
pathogens against which the compound showed activity at 25 ug/ml [1]: ESA | stacked score activity, 100/MIC, E [2]: 0 | stacked score activity, 100/MIC, E [3]: 10 | stacked score activity, 100/MIC, A [4]: 4 | stacked score activity, 100/MIC, K [5]: 0 | stacked score activity, 100/MIC, S [6]: 10

CCCCCCCCCCCCOS(=O)(=O)[O-].[Na+] [SDS, sodium dodecyl sulfate]
cells remaining after exposure (optical density relative to starting values) [7]: 52.2% | cell recovery (viability, CFU/mL vs no drug control) [7]: 0%

CC(C)(C)CC(C)(C)c1ccc(OCCOCC[N+](C)(C)Cc2ccccc2)cc1 [benzethonium chloride]
cells remaining after exposure (optical density relative to starting values) [7]: 32.63% | cell recovery (viability, CFU/mL vs no drug control) [7]: 0%

C[C@H]1c2cccc(O)c2C(=O)C2=C(O)[C@]3(O)C(=O)C(C(N)=O)=C(O)[C@@H](N(C)C)[C@@H]3[C@@H](O)[C@@H]21 [doxycycline]
cell recovery (viability, CFU/mL vs no drug control) [7]: 92%

benzalkonium chloride [listing 1 of 2 here]
cells remaining after exposure (optical density relative to starting values) [7]: 28.56%

benzalkonium chloride [listing 2 of 2 here]
cell recovery (viability, CFU/mL vs no drug control) [7]: 0%

lysostaphin: a S. aureus specific lytic agent, positive control
cell recovery (viability, CFU/mL vs no drug control) [7]: 0% | lysis of MRSA cells ([7]; within 10 minutes of exposure, 4 μM lysostaphin): > 50%
